Assay [1] deals with pfl RNA (RNA, riboswitch) GGUAAAAUAAGAAAAUCAUGCAACUGGCGGAAAUGGAGUUCACCAUAGGGAGCAUGAUUAAUAUAAGAAUCGACCGCCUGGGUAAAUUAAUA
Description: RNase T1 and V1 protection assay. Conditions: PRPP unstable; 1 mM in in-line probing list.

Assay [2] relates to SK209-52 RNA (RNA, riboswitch, extra 5' G residues added for transcription (asterisks in Figure 1b)) GGUACCUGUCACAACGGCUUCCUGGCGUGACGAGGUGACCUCAGUGGAGCAA
Description: in-line probing.

Assay [3] deals with SAM-Chlorobi RNA (longest construct) (RNA, mRNA element) GGAUUUUCCGGCAUCCCCAUUACCUAUGGACACGGUGCCAAAAGCUCUCUUGCGGGAGUUGUCCCCGGAGCUUGCCGAAAGGUUUCCCGUGUCCCGUUUGUCCCUCCGCGACAUUCACCUUCACGAGAAAACCGCAUCGGCAAACCGCCGGACACCUGCCGUUCUUGUCGUUCGAUUAACAAAAAACCGAAAGGGAAACUA
In words: in-line probing. As to conditions: 1 mM tested; preliminary analysis.

In assay [4] the test system is SAM-Chlorobi RNA (second construct, shorter 3' end) (RNA, mRNA element) GGAUUUUCCGGCAUCCCCAUUACCUAUGGACACGGUGCCAAAAGCUCUCUUGCGGGAGUUGUCCCCGGAGCUUGCCGAAAGGUUUCCCGUGUCCCGUUUGUCCC
In words: in-line probing. As to conditions: 1 mM tested; preliminary analysis.

Assay [5] has as its system SAM-Chlorobi RNA (third construct, shorter 3' end) (RNA, mRNA element) GGAUUUUCCGGCAUCCCCAUUACCUAUGGACACGGUGCCAAAAGCUCUCUUGCGGGAGUUGUCCCCGGAGCUUGCCGAAAGGUUUCC
In words: in-line probing. As to conditions: 1 mM tested; preliminary analysis.

The test system of assay [6] is SAM-Chlorobi RNA (fourth construct, shortest 3' end) (RNA, mRNA element) GGAUUUUCCGGCAUCCCCAUUACCUAUGGACACGGUGCCAAAAGCUCUCUUGCGGGAGUU
In words: in-line probing. Conditions: 1 mM tested; preliminary analysis.

Three molecules from article PMC2864571 (2010) can be followed below.

Read-outs that look alike come from different tables or passages of the source.

For the molecule `O=P(O)(O)OC[C@H]1O[C@H](OP(=O)(O)OP(=O)(O)O)[C@H](O)[C@@H]1O`, in assay [1], the binding entry was “no”.

On to `C[S+](CC[C@H](N)C(=O)O)C[C@H]1O[C@@H](n2cnc3c(N)ncnc32)[C@H](O)[C@@H]1O` (some centres unmarked), for which the KD in assay [2] (SAM samples contain some SAH from spontaneous demethylation, apparent) is on record as ~ 8.6 μM. In addition, the binding result in assay [3], in assay [4], in assay [5] and in assay [6] was “no” in each case.

In the case of `Nc1ncnc2c1ncn2[C@@H]1O[C@H](CSCC[C@H](N)C(=O)O)[C@@H](O)[C@H]1O`, in assay [2], the KD was ~ 4.3 μM. The binding result in assay [3], in assay [4], in assay [5] and in assay [6] was “no” each time.
